In PubChem BioAssay AID256 (DTP/NCI, 2004):
Where “and” joins values, the source holds several entries; their conditions need not be identical. Equal values may be shown once. Toxic doses and inconclusive results are not listed.

System: CD2F1 mice, L1210 leukemia ip, survival T/C
Assay: NCI In Vivo Anticancer Drug Screen. Data for tumor model L1210 Leukemia (intraperitoneal) in CD2F1 (CDF1) mice
Settings: higher = longer survival
In short: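 Read-out first: treated-group measurement over vehicle-control measurement, expressed as a ratio. Animals bore a transplanted tumor line and were dosed with compound or vehicle.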

[1] = endpoint: mean survival time, dose: 200.0 mg/kg/injection, schedule: Q04DX002 (ip), vehicle: saline with Tween-80
[2] = endpoint: mean survival time, dose: 400.0 mg/kg/injection, schedule: Q04DX002 (ip), vehicle: saline with Tween-80
[3] = endpoint: mean survival time, dose: 100.0 mg/kg/injection, schedule: Q01DX009 (ip), vehicle: saline with Tween-80
[4] = endpoint: mean survival time, dose: 100.0 mg/kg/injection, schedule: Q04DX003 (ip), vehicle: saline with Tween-80
[5] = endpoint: mean survival time, dose: 200.0 mg/kg/injection, schedule: Q01DX009 (ip), vehicle: saline with Tween-80
[6] = endpoint: mean survival time, dose: 200.0 mg/kg/injection, schedule: Q04DX003 (ip), vehicle: saline with Tween-80
[7] = endpoint: mean survival time, dose: 400.0 mg/kg/injection, schedule: Q01DX009 (ip), vehicle: saline with Tween-80
[8] = endpoint: mean survival time, dose: 400.0 mg/kg/injection, schedule: Q04DX003 (ip), vehicle: saline with Tween-80
[9] = endpoint: mean survival time, dose: 100.0 mg/kg/injection, schedule: Q04DX002 (ip), vehicle: saline with Tween-80

Question: Which results are given for `CC(=O)Cc1cc(=O)n(C2OC(COC(=O)c3ccccc3)C(OC(=O)c3ccccc3)C2OC(=O)c2ccccc2)c(=O)[nH]1` (stereo unspecified)?
Answer: T/C (endpoint: mean survival time, dose: 12.5 mg/kg/injection, schedule: Q01DX005 (ip), vehicle: distilled water + Tween-80): 97 % of control; T/C (endpoint: mean survival time, dose: 25.0 mg/kg/injection, schedule: Q01DX005 (ip), vehicle: distilled water + Tween-80): 97 % of control; T/C (endpoint: mean survival time, dose: 50.0 mg/kg/injection, schedule: Q01DX005 (ip), vehicle: distilled water + Tween-80): 105 % of control; T/C (endpoint: mean survival time, dose: 100.0 mg/kg/injection, schedule: Q01DX005 (ip), vehicle: distilled water + Tween-80): 95 % of control; T/C (endpoint: mean survival time, dose: 200.0 mg/kg/injection, schedule: Q01DX005 (ip), vehicle: distilled water + Tween-80): 100 % of control

Question: For `CC(=O)c1c(C)c2c(C)cc3oc(=O)c(C(C)=O)c(C)c3c2oc1=O`, which T/C [1] is on record?
Answer: 92 % of control

Question: What about the T/C [2] of the same compound?
Answer: 87 % of control

Question: For `Cc1ncc(C=O)c(C)c1O`, which T/C (endpoint: mean survival time, dose: 75.0 mg/kg/injection, schedule: Q01DX001 (ip), vehicle: other) is on record?
Answer: 101 % of control

Question: For `Cc1oc(N)c(C#N)c1C`, which T/C [3] is on record?
Answer: 101 % of control

Question: And the T/C [4]?
Answer: 102 % of control

Question: And the T/C [5]?
Answer: 104 % of control

Question: What about the T/C [6] of the same compound?
Answer: 96 % of control

Question: And the T/C [7]?
Answer: 106 % of control

Question: What about the T/C [8] of the same compound?
Answer: 102 % of control

Question: With `CCSCCCO` as the compound, how does the T/C (endpoint: mean survival time, dose: 75.0 mg/kg/injection, schedule: Q04DX003 (ip), vehicle: saline) read?
Answer: 95 % of control

Question: And the T/C (endpoint: mean survival time, dose: 150.0 mg/kg/injection, schedule: Q04DX003 (ip), vehicle: saline)?
Answer: 97 % of control

Question: What about the T/C (endpoint: mean survival time, dose: 300.0 mg/kg/injection, schedule: Q04DX003 (ip), vehicle: saline) of the same compound?
Answer: 103 % of control

Question: What does the source list for `Cc1nc2ccccc2[nH]1`?
Answer: T/C (endpoint: mean survival time, dose: 100.0 mg/kg/injection, schedule: Q01DX001 (ip), vehicle: saline with Tween-80): 102 % of control; T/C (endpoint: mean survival time, dose: 200.0 mg/kg/injection, schedule: Q01DX001 (ip), vehicle: saline with Tween-80): 105 % of control

Question: `CS(=O)(=O)OCCNc1ccc([N+](=O)[O-])cc1` was tested. Which T/C (endpoint: mean survival time, dose: 8.0 mg/kg/injection, schedule: Q01DX001 (ip), vehicle: saline) did it give?
Answer: 100 % of control

Question: What about the T/C (endpoint: mean survival time, dose: 10.0 mg/kg/injection, schedule: Q01DX010 (ip), vehicle: saline) of the same compound?
Answer: 103 % of control

Question: And the T/C (endpoint: mean survival time, dose: 16.0 mg/kg/injection, schedule: Q01DX001 (ip), vehicle: saline)?
Answer: 95 % of control

Question: What about the T/C (endpoint: mean survival time, dose: 30.0 mg/kg/injection, schedule: Q01DX010 (ip), vehicle: saline) of the same compound?
Answer: 113 % of control

Question: What about the T/C (endpoint: mean survival time, dose: 32.0 mg/kg/injection, schedule: Q01DX001 (ip), vehicle: saline) of the same compound?
Answer: 98 % of control

Question: And the T/C (endpoint: mean survival time, dose: 64.0 mg/kg/injection, schedule: Q01DX001 (ip), vehicle: saline)?
Answer: 90 % of control and 100 % of control

Question: And the T/C (endpoint: mean survival time, dose: 100.0 mg/kg/injection, schedule: Q01DX010 (ip), vehicle: saline)?
Answer: 119 % of control

Question: What about the T/C (endpoint: mean survival time, dose: 128.0 mg/kg/injection, schedule: Q01DX001 (ip), vehicle: saline) of the same compound?
Answer: 96 % of control

Question: And the T/C (endpoint: mean survival time, dose: 256.0 mg/kg/injection, schedule: Q01DX001 (ip), vehicle: saline)?
Answer: 96 % of control

Question: And the T/C (endpoint: mean survival time, dose: 300.0 mg/kg/injection, schedule: Q01DX010 (ip), vehicle: saline)?
Answer: 97 % of control

Question: For `COc1cc(C2=N/C(=C\c3ccc(C(C)C)cc3)C(=O)O2)cc(OC)c1OC`, which T/C [9] is on record?
Answer: 90 % of control

Question: And the T/C [1]?
Answer: 90 % of control

Question: What about the T/C [2] of the same compound?
Answer: 94 % of control

Question: What does the source list for `Cc1[nH]ccc2c(C)c3nc4ccccc4c3cc12`?
Answer: T/C (endpoint: mean survival time, dose: 50.0 mg/kg/injection, schedule: Q01DX009 (ip), vehicle: saline with Tween-80): 152 % of control; T/C [3]: 117 % of control; T/C [6]: 96 % of control

Question: `O=c1sc(N=Nc2ccccc2)nn1-c1ccccc1` was tested. Which T/C (endpoint: mean survival time, dose: 100.0 mg/kg/injection, schedule: Q04DX003 (ip), vehicle: saline) did it give?
Answer: 92 % of control

Question: And the T/C (endpoint: mean survival time, dose: 200.0 mg/kg/injection, schedule: Q04DX003 (ip), vehicle: saline)?
Answer: 91 % of control

Question: Which T/C (endpoint: median survival time, dose: 6.25 mg/kg/injection, schedule: Q01DX009 (ip), vehicle: saline) does the source give for `O=[N+]([O-])c1c(O)c(CNCCCO)cc(CNCCCO)c1O` here?
Answer: 100 % of control

Question: What about the T/C (endpoint: median survival time, dose: 12.5 mg/kg/injection, schedule: Q01DX009 (ip), vehicle: saline) of the same compound?
Answer: 97 % of control

Question: What about the T/C (endpoint: median survival time, dose: 25.0 mg/kg/injection, schedule: Q01DX009 (ip), vehicle: saline) of the same compound?
Answer: 88 % of control

Question: What about the T/C (endpoint: median survival time, dose: 50.0 mg/kg/injection, schedule: Q01DX009 (ip), vehicle: saline) of the same compound?
Answer: 92 % of control

Question: What does the source list for `CCN(CC)CCSC(=O)c1ccccc1`?
Answer: T/C (endpoint: mean survival time, dose: 50.0 mg/kg/injection, schedule: Q01DX009 (ip), vehicle: saline): 103 % of control; T/C (endpoint: mean survival time, dose: 100.0 mg/kg/injection, schedule: Q01DX009 (ip), vehicle: saline): 103 % of control

Question: `O=c1ccc(OS(=O)(=O)c2ccccc2)n[nH]1` was tested. Which T/C [9] did it give?
Answer: 95 % of control

Question: And the T/C [1]?
Answer: 87 % of control

Question: And the T/C [2]?
Answer: 104 % of control

Question: With `NC(N)=Nc1ccc(C(=O)Oc2ccc([N+](=O)[O-])cc2)cc1` as the compound, how does the T/C [3] read?
Answer: 112 % of control

Question: What about the T/C [5] of the same compound?
Answer: 102 % of control

Question: Which results are given for `CCCCCCCCNC(C)=O`?
Answer: T/C (endpoint: mean survival time, dose: 6.25 mg/kg/injection, schedule: Q01DX009 (ip), vehicle: saline with Tween-80): 93 % of control; T/C (endpoint: mean survival time, dose: 12.5 mg/kg/injection, schedule: Q01DX009 (ip), vehicle: saline with Tween-80): 90 % of control; T/C (endpoint: mean survival time, dose: 25.0 mg/kg/injection, schedule: Q01DX009 (ip), vehicle: saline with Tween-80): 94 % of control

Question: For `CC(=O)OC1CCC2(C)C(CCC3C2CCC2(C)C3CC3OC(CCC(C)CO)C(C)C32)C1` (stereo unspecified), which T/C [3] is on record?
Answer: 95 % of control

Question: And the T/C [5]?
Answer: 91 % of control

Question: What about the T/C [7] of the same compound?
Answer: 96 % of control

Question: For `CCOC(=O)CC/C=C/Cc1c(OC)c(C)c2c(c1OC(=O)NCc1ccc(N(CC)CC)cc1)C(=O)OC2`, which T/C [9] is on record?
Answer: 112 % of control

Question: For `CC(=O)OC1CCC2(C)C(CCC3(C)C2CCC2C4C5OC(=O)C4(CCC5(C)C)CCC23C)C1(C)C` (stereo unspecified), which T/C (endpoint: mean survival time, dose: 6.25 mg/kg/injection, schedule: Q04DX002 (ip), vehicle: saline with Tween-80) is on record?
Answer: 114 % of control

Question: What about the T/C (endpoint: mean survival time, dose: 12.5 mg/kg/injection, schedule: Q04DX002 (ip), vehicle: saline with Tween-80) of the same compound?
Answer: 100 % of control

Question: And the T/C (endpoint: mean survival time, dose: 25.0 mg/kg/injection, schedule: Q04DX002 (ip), vehicle: saline with Tween-80)?
Answer: 100 % of control

Question: What about the T/C (endpoint: mean survival time, dose: 50.0 mg/kg/injection, schedule: Q04DX002 (ip), vehicle: saline with Tween-80) of the same compound?
Answer: 88 % of control

Question: And the T/C [9]?
Answer: 98 % of control

Question: How did the T/C [3] turn out when `CCOC(=O)C(CCC#N)(CCC#N)C(=O)OCC` was run?
Answer: 91 % of control

Question: What about the T/C [4] of the same compound?
Answer: 96 % of control

Question: And the T/C [5]?
Answer: 94 % of control

Question: What about the T/C [6] of the same compound?
Answer: 102 % of control

Question: And the T/C [7]?
Answer: 94 % of control

Question: What about the T/C [8] of the same compound?
Answer: 104 % of control
